This is an account of results in patent publication US8178658B2 (Dow AgroSciences, LLC, priority 2008, dated 2012).

Structures are written as SMILES. Some results are limits rather than exact numbers.

In assay [1] the test system is beet armyworm (BAW; Spodoptera exigua: Lepidoptera). The experiment in a line: 128-well diet tray assay on beet armyworm (BAW 50). It counts as in vivo. Particulars: 128-well diet tray assay, second instar BAW larvae, mortality class; for BAW 50 ug/cm2: 50 μg/cm^2 of test compound on diet. The gist of the method:
(§1)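 Mortality is the read-out for both formats, scored against a 50% cut-off. Microplate wells received eggs over diet carrying 12 μg test compound, kept in darkness at 29° C for 6 d, six replicates averaged. Diet-tray wells held second instar larvae on diet at 50 μg/cm^2, kept 6 d at 25° C under 14:10 photoperiod.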

Assay [2] shares this test system. Kind of assay: 96-well microtiter plate-based high throughput (HTS) diet bioassay on beet armyworm (BAW HTS). It counts as in vivo. The note with it: BAW eggs, 12 μg test compound per well, mortality at 6 d post-treatment, mortality class. The gist of the method: as §1
The mark [3] stands for this setting: 96-well microtiter plate HTS diet assay.

For `CCCOC1C(OC)C(C)OC(ON=Cc2ccc(-c3ncn(-c4ccc(C(F)(F)C(F)(F)F)cc4)n3)cc2)C1OC` (stereo not shown) [Compound 108], the “BAW 50 ug/cm2” value in assay [1] was “A (the compound was tested and at least 50 percent mortality was observed)”. Further, the “BAW HTS” value in assay [2] (96-well HTS diet bioassay) is “B (either (1) the compound was tested and less than 50 percent mortality was observed or (2) the compound was not tested)”; in assay [2] (setting [3]) it was “B (either (1) the compound was tested and less than 50 percent mortality was observed or (2) the compound was not tested)”.

In the case of `CCCCOC1C(OC)C(C)OC(ON=Cc2ccc(-c3ncn(-c4ccc(OC(F)(F)C(F)(F)F)cc4)n3)cc2)C1OC` (stereo not shown) [Compound 109], in assay [1], the “BAW 50 ug/cm2” value is “A (the compound was tested and at least 50 percent mortality was observed)”. Further, the “BAW HTS” value in assay [2] (96-well HTS diet bioassay) was “A (the compound was tested and at least 50 percent mortality was observed)”; in assay [2] (setting [3]) it was “A (the compound was tested and at least 50 percent mortality was observed)”.

As to `CCCOC1C(OC)C(C)OC(ON=Cc2ccc(-c3ncn(-c4ccc(C(F)(F)C(F)(F)C(F)(F)F)cc4)n3)cc2)C1OC` (stereo not shown) [Compound 110], the “BAW 50 ug/cm2” value in assay [1] was “A (the compound was tested and at least 50 percent mortality was observed)”. For the same molecule, the “BAW HTS” value is “B (either (1) the compound was tested and less than 50 percent mortality was observed or (2) the compound was not tested)” in assay [2] (96-well HTS diet bioassay); “B (either (1) the compound was tested and less than 50 percent mortality was observed or (2) the compound was not tested)” in assay [2] (setting [3]).

Take `CCOC1C(OC)C(C)OC(ON=Cc2ccc(-c3ncn(-c4ccc(OS(=O)(=O)C(F)(F)F)cc4)n3)cc2)C1OC` (stereo not shown) [Compound 112]: the “BAW 50 ug/cm2” value in assay [1] was “A (the compound was tested and at least 50 percent mortality was observed)”. Also, the “BAW HTS” value is “B (either (1) the compound was tested and less than 50 percent mortality was observed or (2) the compound was not tested)” in assay [2] (96-well HTS diet bioassay); “B (either (1) the compound was tested and less than 50 percent mortality was observed or (2) the compound was not tested)” in assay [2] (setting [3]).

Consider `CCCO[C@@H]1[C@@H](OC)[C@@H](OC)[C@H](O/N=C/c2ccc(-c3ncn(-c4ccc(OC(F)(F)C(F)(F)F)cc4)n3)cc2)O[C@H]1C` [Compound 113, 4-[1-(4-pentafluoroethyloxy-phenyl)-1H-[1,2,4]triazol-3-yl]-benzaldehyde, O-((2S,3R,4R,5S,6S)-3,4-dimethoxy-6-methyl-5-propoxy-tetrahydropyran-2-yl)-oxime], for which the “BAW 50 ug/cm2” value in assay [1] is “A (the compound was tested and at least 50 percent mortality was observed)”. The pest or weed control at 50 µg/cm2, 50 µg/cm2 in assay [1] (Spodoptera exigua, 144 h, 50 μg/cm2 of test compound on diet, read-out: BAW 50 ug/cm2) is > 50%. The “BAW HTS” value in assay [2] (setting [3]) is “B (either (1) the compound was tested and less than 50 percent mortality was observed or (2) the compound was not tested)”. In assay [2] (Spodoptera exigua, 144 h, 96-well HTS diet bioassay, read-out: BAW HTS), the pest or weed control at 12 µg/well, 12 µg/well is < 50%.

On to `CCOC1C(OC)C(C)OC(ON=Cc2ccc(-c3ncn(-c4ccc(C(F)(F)F)cc4Cl)n3)cc2)C1OC` (stereo not shown) [Compound 115], for which, in assay [1], the “BAW 50 ug/cm2” value was “A (the compound was tested and at least 50 percent mortality was observed)”. The “BAW HTS” value in assay [2] (96-well HTS diet bioassay) was “B (either (1) the compound was tested and less than 50 percent mortality was observed or (2) the compound was not tested)”; in assay [2] (setting [3]) it was “B (either (1) the compound was tested and less than 50 percent mortality was observed or (2) the compound was not tested)”.

On to `CCOC1C(OC)C(C)OC(ON=Cc2ccc(-c3ncn(-c4ccc(C(F)(F)F)cn4)n3)cc2)C1OC` (stereo not shown) [Compound 116], for which the “BAW 50 ug/cm2” value in assay [1] is “A (the compound was tested and at least 50 percent mortality was observed)”. Besides, the “BAW HTS” value in assay [2] (96-well HTS diet bioassay) was “B (either (1) the compound was tested and less than 50 percent mortality was observed or (2) the compound was not tested)”; in assay [2] (setting [3]) it was “B (either (1) the compound was tested and less than 50 percent mortality was observed or (2) the compound was not tested)”.
